Values quoted from earlier work in patent US11426447B2, “Neuregulin for the treatment of tumors of the nervous system” (LEIBNIZ-INSTITUT FUR …, priority 2016, dated 2022).

Test system: schwannoma
Conditions: cited from earlier work

bevacizumab
efficacy for schwannoma growth control and hearing improvement (NF2 patients (Plotkin et al., 2009)): limited efficacy
side effects (human, in vivo): severe side effects
